# From paper PMC11855827, “High-Throughput Screening of Five Compound Libraries for Anthelmintic Activity and Toxicity Leads to the Discovery of Two Flavonoid Compounds” (International Journal of Molecular Sciences, 2025)
# *1 amine or outer side, *2 acyl side, *3 side chain or, on linkers, in order; H or OH if unused. Where a SMILES comes first, the peptide text is derived from it. Bridges are numbered along the chain shown (N, C = ends). [ ]: non-standard residue; d: D form. The star is where a group is joined. hTyr(3S-OH,4S-OH,3'-OSO3H) = N[C@H](C(=O)O)[C@H](O)[C@@H](O)c1ccc(O)c(OS(=O)(=O)O)c1; Orn(4R-OH,5R-OH) = O=C([C@H](C[C@@H](O)[C@@H](O)N[*:3])N[*:1])[*:2]; Pro(3S-OH,4S-Me) = C[C@H]1CN[C@H](C(=O)O)[C@H]1O; X1 = CCCCCOc1ccc(-c2cc(-c3ccc(C(=O)*)cc3)no2)cc1; Gln(3R-OH) = NC(=O)C[C@@H](O)[C@H](N)C(=O)O; Hyp = O=C(O)[C@@H]1C[C@@H](O)CN1
# System: C. elegans
# Details: Table S2, C. elegans SS assay, 110 μM, averages of 4 data points
Compound,Percentage of motility inhibition 0 h,Percentage of motility inhibition 24 h
C[C@@H]1O[C@@H](O[C@H]2[C@H](O[C@H]3CC[C@@]4(C)[C@@H](CC[C@]5(C)[C@@H]4CC=C4[C@@H]6CC(C)(C)CC[C@]6(C(=O)O[C@@H]6O[C@H](CO[C@@H]7O[C@H](CO)[C@@H](O)[C@H](O)[C@H]7O)[C@@H](O)[C@H](O)[C@H]6O)CC[C@]45C)[C@]3(C)CO)OC[C@H](O)[C@@H]2O)[C@H](O)[C@H](O[C@@H]2O[C@H](CO)[C@@H](O)[C@H](O)[C@H]2O)[C@H]1O [Macranthoidin A],1%,1%
C[C@@H]1O[C@@H](O[C@H]2[C@H](O[C@H]3CC[C@@]4(C)[C@@H](CC[C@]5(C)[C@@H]4CC=C4[C@@H]6CC(C)(C)CC[C@]6(C(=O)O[C@@H]6O[C@H](CO[C@@H]7O[C@H](CO)[C@@H](O)[C@H](O)[C@H]7O)[C@@H](O)[C@H](O)[C@H]6O)CC[C@]45C)[C@]3(C)CO)OC[C@H](O)[C@@H]2O)[C@H](O)[C@H](O[C@@H]2O[C@H](CO)[C@@H](O[C@@H]3O[C@H](CO)[C@@H](O)[C@H](O)[C@H]3O)[C@H](O)[C@H]2O)[C@H]1O [Macranthoidin B],6%,0%
O=C1N[C@@H](Cc2ccc(O)cc2)C(=O)N2CCC[C@@H]12 [Maculosin],0%,0%
CC(=O)O.NCc1ccc(S(N)(=O)=O)cc1 [Mafenide (Acetate)],21%,10%
CC(=O)[O-].CC(=O)[O-].O.O.O.O.[Mg+2] [Magnesium acetate tetrahydrate],2%,0%
CCOC(=O)c1c(C)n(C)c2ccc(O)cc12 [Mecarbinate],38%,36%
CC1(C)CC[C@]2(C(=O)O)CC[C@]3(C)C(=CC[C@@H]4[C@@]5(C)C[C@H](O)[C@H](O)[C@@](C)(C(=O)O)[C@@H]5CC[C@]43C)[C@@H]2C1 [Medicagenic acid],0%,5%
Cl.OC(c1cc(C(F)(F)F)nc2c(C(F)(F)F)cccc12)C1CCCCN1 (centres unmarked) [Mefloquine (hydrochloride)],45%,22%
OCC1=C[C@@H](O)[C@]2(O[C@@H]3O[C@H](CO)[C@@H](O)[C@H](O)[C@H]3O)C=CO[C@@H](O[C@@H]3O[C@H](CO)[C@@H](O)[C@H](O)[C@H]3O)[C@H]12 [Melittoside],0%,4%
CC1CCC(C(C)C)C(O)C1 (centres unmarked) [Menthol],3%,17%
C[C@@H](O)[C@H]1C(=O)N2C(C(=O)O)=C(S[C@@H]3CN[C@H](C(=O)N(C)C)C3)[C@H](C)[C@H]12.O.O.O [Meropenem (trihydrate)],12%,9%
COC[C@]12CN(C)[C@@H]3[C@@H]4[C@H](OC)[C@H]1[C@@]3([C@@H](OC)C[C@H]2O)[C@@H]1C[C@@]2(O)[C@H](OC(=O)c3ccccc3)[C@@H]1[C@]4(OC(C)=O)[C@@H](O)[C@@H]2OC [Mesaconitine],0%,3%
Cc1c(N(C)CS(=O)(=O)[O-])c(=O)n(-c2ccccc2)n1C.[Na+] [Metamizole (sodium)],17%,2%
C=C1c2cccc(O)c2C(=O)C2=C(O)[C@]3(O)C(=O)C(C(N)=O)=C(O)[C@@H](N(C)C)[C@@H]3[C@@H](O)[C@H]12.Cl [Methacycline (hydrochloride)],17%,20%
COc1cccc(OC)c1C(=O)N[C@@H]1C(=O)N2[C@@H]1SC(C)(C)[C@@H]2C(=O)[O-].[Na+] [Methicillin (sodium salt)],16%,1%
COC(=O)c1ccc(O)cn1 [Methyl 5‐hydroxypyridine‐2‐carboxylate],7%,1%
CNc1ccccc1C(=O)OC [Methyl N‐methylanthranilate],30%,4%

Compound,Percentage of motility inhibition 0 h,Percentage of motility inhibition 24 h
COC(=O)C1=CO[C@@H](O[C@@H]2O[C@H](CO)[C@@H](O)[C@H](O)[C@H]2O)[C@@H]2C(CO)=C[C@H](O)[C@H]12 [Methyl deacetylasperulosidate],16%,30%
COC(=O)[C@]12CCC(C)(C)C[C@H]1C1=CC[C@@H]3[C@@]4(C)CCC(=O)C(C)(C)[C@@H]4CC[C@@]3(C)[C@]1(C)CC2 [Methyl oleanonate],4%,1%
CO[C@]1(CC[C@@H](C)CO[C@@H]2O[C@H](CO)[C@@H](O)[C@H](O)[C@H]2O)O[C@H]2C[C@H]3[C@@H]4CC=C5C[C@@H](O[C@@H]6O[C@H](CO)[C@@H](O)[C@H](O[C@@H]7O[C@H](CO)[C@@H](O)[C@H](O)[C@H]7O)[C@H]6O[C@@H]6O[C@@H](C)[C@H](O)[C@@H](O)[C@H]6O)CC[C@]5(C)[C@H]4CC[C@]3(C)[C@H]2[C@@H]1C [Methyl protogracillin],0%,15%
COc1ccc2c(c1OC)O[C@H]1c3ccc(O[C@@H]4O[C@H](CO)[C@@H](O)[C@H](O)[C@H]4O)cc3OC[C@@H]21 [Methylnissolin‐3‐O‐glucoside],8%,7%
Cc1c(O)c(C)c2c(c1O)C(=O)[C@H](Cc1ccc3c(c1)OCO3)CO2 [Methylophiopogonanone A],21%,0%
COc1ccc(C[C@@H]2COc3c(C)c(O)c(C)c(O)c3C2=O)cc1 [Methylophiopogonanone B],0%,21%
Cc1c(O)c(C)c2occ(Cc3ccc4c(c3)OCO4)c(=O)c2c1O [Methylophiopogonone A],0%,0%
CC1(C)S[C@@H]2[C@H](NC(=O)[C@H](NC(=O)N3CCN(S(C)(=O)=O)C3=O)c3ccccc3)C(=O)N2[C@H]1C(=O)[O-].[Na+] [Mezlocillin (sodium)],0%,4%
CN1CCN2c3ccccc3Cc3ccccc3C2C1.Cl (centres unmarked) [Mianserin (hydrochloride)],0%,0%
"CCCCCOc1ccc(-c2cc(-c3ccc(C(=O)N[C@H]4C[C@@H](O)[C@@H](O)NC(=O)[C@@H]5[C@@H](O)[C@@H](C)CN5C(=O)[C@H]([C@H](O)CC(N)=O)NC(=O)[C@H]([C@H](O)[C@@H](O)c5ccc(O)c(OS(=O)(=O)[O-])c5)NC(=O)[C@@H]5C[C@@H](O)CN5C(=O)[C@H]([C@@H](C)O)NC4=O)cc3)no2)cc1.[Na+] [Micafungin (sodium)] (X1-[Orn(4R-OH,5R-OH)]T[Hyp][hTyr(3S-OH,4S-OH,3'-OSO3H)][Gln(3R-OH)][Pro(3S-OH,4S-Me)]; lactam 1-C)",3%,0%
Clc1ccc(COC(Cn2ccnc2)c2ccc(Cl)cc2Cl)c(Cl)c1.O=[N+]([O-])O (centres unmarked) [Miconazole (nitrate)],26%,15%
COC(=O)C1=CO[C@@H](C)[C@H]2CN3CC[C@]4(C(=O)Nc5ccccc54)[C@@H]3C[C@H]12 [Mitraphylline],0%,21%
C[C@H](CC[C@@H](O[C@@H]1O[C@H](CO)[C@@H](O)[C@H](O)[C@H]1O[C@@H]1O[C@H](CO)[C@@H](O)[C@H](O)[C@H]1O)C(C)(C)O)[C@H]1CC[C@@]2(C)[C@@H]3CC=C4[C@@H](CC[C@H](O[C@@H]5O[C@H](CO)[C@@H](O)[C@H](O)[C@H]5O)C4(C)C)[C@]3(C)[C@H](O)C[C@]12C [Mogroside III-E],25%,17%
C[C@H](CC[C@@H](O[C@@H]1O[C@H](CO[C@@H]2O[C@H](CO)[C@@H](O)[C@H](O)[C@H]2O)[C@@H](O)[C@H](O)[C@H]1O)C(C)(C)O)[C@H]1CC[C@@]2(C)[C@@H]3CC=C4[C@@H](CC[C@H](O[C@@H]5O[C@H](CO)[C@@H](O)[C@H](O)[C@H]5O)C4(C)C)[C@]3(C)[C@H](O)C[C@]12C [Mogroside III],7%,3%
C[C@H](CC[C@@H](O[C@@H]1O[C@H](CO)[C@@H](O)[C@H](O)[C@H]1O)C(C)(C)O)[C@H]1CC[C@@]2(C)[C@@H]3CC=C4[C@@H](CC[C@H](O[C@@H]5O[C@H](CO)[C@@H](O)[C@H](O)[C@H]5O)C4(C)C)[C@]3(C)[C@H](O)C[C@]12C [Mogroside IIe],0%,7%
C[C@H](CC[C@@H](O[C@@H]1O[C@H](CO[C@@H]2O[C@H](CO)[C@@H](O)[C@H](O)[C@H]2O)[C@@H](O)[C@H](O)[C@H]1O)C(C)(C)O)[C@H]1CC[C@@]2(C)[C@@H]3CC=C4[C@@H](CC[C@H](O[C@@H]5O[C@H](CO[C@@H]6O[C@H](CO)[C@@H](O)[C@H](O)[C@H]6O)[C@@H](O)[C@H](O)[C@H]5O)C4(C)C)[C@]3(C)[C@H](O)C[C@]12C [Mogroside IV-A],0%,0%
C[C@H](CC[C@@H](O[C@@H]1O[C@H](CO)[C@@H](O)[C@H](O)[C@H]1O[C@@H]1O[C@H](CO)[C@@H](O)[C@H](O)[C@H]1O)C(C)(C)O)[C@H]1CC[C@@]2(C)[C@H]3CC=C4[C@@H](CC[C@H](O[C@@H]5O[C@H](CO[C@@H]6O[C@H](CO)[C@@H](O)[C@H](O)[C@H]6O)[C@@H](O)[C@H](O)[C@H]5O)C4(C)C)[C@]3(C)[C@H](O)C[C@]12C [Mogroside IV-E],4%,6%
